Data from US12583938B2, “Protein biomarker and uses thereof” (Daiichi Sankyo Co., Ltd., priority 2013, dated 2026).
“Also recorded” adds a separate entry of the source. Like-named read-outs stand apart in the source and are kept apart here.

Columns and labels:
[1] = system: Stage IIIb/IV NSCLC; conditions: Phase 1b, 150 mg erlotinib daily + 18 mg/kg patritumab every 3 weeks, 7 subjects
Protocol: (§1) In both portions of the study, subjects received 150 mg of erlotinib orally once daily. […] Tumors were to be assessed every 6 weeks (±3 days) up to the first 24 weeks of the study, then every 12 weeks (±7 days) independent of treatment cycle.

[2] = monotherapy Phase 1 study of patritumab; type: in vivo
Protocol: A higher maintenance dose level of 18 mg/kg was also included to accommodate the possible effect of reduced tumor tissue penetration in the clinical setting relative to animal models.

[3] = system: HER3 phosphorylation in BT474 cells; assay: in vitro HER3 phosphorylation by Western blotting; type: cell-based, human; conditions: FIG. 10
Protocol: FIG. 10 depicts Western blots showing that U3-1287 can block […] basal HER3 phosphorylation.
(§2) U3-1287 efficacy was determined in vitro by measuring reduction of phospho-HER3 and phospho-AKT levels.

[4] = system: MKN-45; assay: human cancer xenograft in mice, tumor growth inhibition; type: in vivo; conditions: MKN-45 xenograft, Gastric, HRG (WB) −
Protocol: (§3) The HRG biomarker was identified by analysing the anti-tumor activity of the anti-HER3 antibody U3-1287 on various human cancer xenografts in vivo and analysis of the expression of HRG of these cell lines in vitro. Human tumor cell lines of various indications were grown as xenografts in mice and treated with the anti-HER3 antibody U3-1287 for several weeks. Inhibition of tumor growth was analysed by comparing the tumor volumes of control mice and mice treated with U3-1287. Human tumor cell lines were grown in vitro and analysed for HRG protein expression by Western blotting.

[5] = system: BxPC3; assay: as above; type: in vivo; conditions: Pancreas, HRG (WB) +
Protocol: as §3

[6] = system: HT-29; assay: as above; type: in vivo; conditions: HT-29 xenograft, Colon, HRG (WB) −
Protocol: as §3

[7] = system: BT474; assay: as above; type: in vivo; conditions: BC FISH + ve, HRG (WB) −
Protocol: as §3

[8] = system: Sum225; assay: as above; type: in vivo; conditions: BC FISH + ve, HRG (WB) −
Protocol: as §3

[9] = system: NC-H1975; assay: as above; type: in vivo; conditions: NSCLC, HRG (WB) +
Protocol: as §3

[10] = system: A549; assay: as above; type: in vivo; conditions: NSCLC, HRG (WB) +
Protocol: as §3

[11] = system: ZR75-1; assay: as above; type: in vivo; conditions: ZR75-1 xenograft, BC FISH + ve, HRG (WB) −
Protocol: as §3

[12] = system: Calu-3; assay: as above; type: in vivo; conditions: Calu-3 xenograft, NSCLC, HRG (WB) +
Protocol: as §3

[13] = system: A375; assay: as above; type: in vivo; conditions: Melanoma, HRG (WB) −
Protocol: as §3

[14] = system: MCF-7; assay: as above; type: in vivo; conditions: MCF-7 xenograft, BC FISH + ve, HRG (WB) −
Protocol: as §3

[15] = system: MDA-MB453; assay: as above; type: in vivo; conditions: BC FISH + ve, HRG (WB) −
Protocol: as §3

[16] = system: FaDu; assay: as above; type: in vivo; conditions: Head&Neck, HRG (WB) +
Protocol: as §3

[17] = system: NCI-H441; assay: as above; type: in vivo; conditions: NSCLC, HRG (WB) −
Protocol: as §3

[18] = system: HT-144; assay: as above; type: in vivo; conditions: HT-144 xenograft, Melanoma, HRG (WB) −
Protocol: as §3

[19] = system: HCC 1569; assay: as above; type: in vivo; conditions: HCC 1569 xenograft, BC FISH + ve, HRG (WB) −
Protocol: as §3

[20] = system: HER3 phosphorylation in A549 cells; assay: in vitro reduction of phospho-HER3 and phospho-AKT levels by Western blotting; type: cell-based, human; conditions: A549, endogenously express heregulin; FIG. 9
Protocol: (§4) FIG. 9 depicts efficacy determined in vitro by measuring reduction of phospho-HER3 and phospho-AKT levels by Western blotting.
as §2

[21] = system: HER3 phosphorylation in CaOV3 cells; assay: as above; type: cell-based, human; conditions: CaOV3, no basal HER3 activation, stimulated with exogenous heregulin; FIG. 9
Protocol: as §4, §2

[22] = system: Stage IIIb/IV NSCLC; conditions: for OS: Subjects (%) with events / OS: Subjects (%) without events (censored) / PFS: Subjects (%) with events / PFS: Subjects (%) without events (censored) / Progression-Free Survival, Time to event, Median / Overall Survival, Time to event, Median: Full Analysis Set; for Progression-Free Survival, Time to event, Median / Overall Survival, Time to event, Median: Kaplan-Meier Estimate; for Overall Survival, Time to event, Median: preliminary; for On-Study Death / Primary Cause of On-Study Death: Adverse Event / Primary Cause of On-Study Death: Disease Progression / Primary Reason for Discontinuing Study Treatment: Adverse Event / Primary Reason for Discontinuing Study Treatment: Death / Primary Reason for Discontinuing Study Treatment: Progressive Disease (Radiographic Progression): Enrolled/Randomized Analysis Set; for HR for PFS (pooled dose vs placebo): soluble HRG high group, + erlotinib
Protocol: as §1
An “HRG high” subject was defined as a subject with observed soluble HRG concentration of higher than 980 pg/mL, the Quartile 3 of the sample set. Soluble HRC concentration was measured by the improved ELISA method disclosed herein.
At the point of primary analysis, the treatment assignment for all subjects was unblinded to designated study personnel for analysis after data were reconciled and cleaned, and a snapshot of the clean database was created. To minimize potential bias, individual treatment assignment was not divulged to subjects or Investigators until study closure.
All efficacy analyses were performed on the full analysis set, which includes all subjects in the randomized analysis set who received at least one dose of randomized study medication. The primary efficacy endpoint was PFS. PFS is defined as the time from the date of randomization to the earlier of the dates of the first objective documentation of radiographic disease progression or death due to any cause. A subject who was alive with no objective documentation of (radiographic) disease progression by the data cut-off date was to be censored at the date of the last evaluable tumor assessment. The key secondary efficacy endpoint, overall survival, was defined as the time from the date of randomization to death due to any cause and was analyzed in the same manner as the primary efficacy endpoint PFS.
Kaplan-Meier curves were generated for PFS and used to calculate medians and 95% CIs for each treatment group.
The stratification factors included histology (Adenocarcinoma vs Non-Adenocarcinoma) and best response to prior therapy (CR/PR/SD vs PD). […] Cox's proportional hazards model with the same stratification factors used for the stratified log-rank test.
Unless otherwise indicated, tog-rank p-values and HRs for PFS and OS were based on the primary analysis adjusted for the stratification factors at randomization as described above.

[23] = 9 mg/kg patritumab + erlotinib (N = 71)
[24] = 9 mg/kg patritumab + erlotinib (N = 72)
[25] = 18 mg/kg patritumab + erlotinib (N = 70)
[26] = 18 mg/kg patritumab + erlotinib (N = 72)

Substance: patritumab
- AEs grade≥3, number of subjects [1]: 2 subjects
- patritumab-related AE reported in ≥2 subjects [1]: decreased appetite
- relation of grade≥3 AEs to patritumab [1]: none were related to patritumab
- tumor response [1]: No response was recorded
- DLTs ([1]; 18 mg/kg): no DLTs were seen; also recorded: No DLTs were reported
- subjects with serious AEs ([1]; four serious AEs): Three
- maximum tolerated dose ([2]; Phase 1 study): not reached
- dose limiting toxicity ([2]; in vivo): lack of dose limiting toxicity
- efficacy on HER3 phosphorylation ([3]; BT474+HRG (exogenously added heregulin)): could be overcome by exogenously added heregulin
- efficacy on basal HER3 phosphorylation ([3]; BT474 basal, do not express heregulin): no efficacy
- ligand-dependent basal HER3 phosphorylation ([3]; Western blots): can block
- In vivo efficacy (SA) [4]: Yes
- In vivo efficacy (SA) [5]: Yes
- In vivo efficacy (SA) [6]: Yes
- In vivo efficacy (SA) [7]: No
- In vivo efficacy (SA) [8]: No
- In vivo efficacy (SA) [9]: Yes
- In vivo efficacy (SA) [10]: Yes
- In vivo efficacy (SA) [11]: No
- In vivo efficacy (SA) [12]: Yes
- In vivo efficacy (SA) [13]: No
- In vivo efficacy (SA) [14]: No
- In vivo efficacy (SA) [15]: No
- In vivo efficacy (SA) [16]: Yes
- In vivo efficacy (SA) [17]: No
- In vivo efficacy (SA) [18]: No
- In vivo efficacy (SA) [19]: No
- Basal HER3 phosphorylation [20]: could be blocked
- HER3 phosphorylation [21]: could be blocked
- OS: Subjects (%) with events [22, 23]: 46 (64.8%) subjects (%)
- OS: Subjects (%) without events (censored) [22, 23]: 25 (35.2%) subjects (%)
- PFS: Subjects (%) with events [22, 23]: 52 (73.2%) subjects (%)
- PFS: Subjects (%) without events (censored) [22, 23]: 19 (26.8%) subjects (%)
- Progression-Free Survival, Time to event, Median [22, 23]: 2.5 months
- Overall Survival, Time to event, Median [22, 23]: 6.3 months
- On-Study Death [22, 24]: 9 subjects
- Primary Cause of On-Study Death: Adverse Event [22, 24]: 4 subjects
- Primary Cause of On-Study Death: Disease Progression [22, 24]: 4 subjects
- Primary Reason for Discontinuing Study Treatment: Adverse Event [22, 24]: 6 subjects
- Primary Reason for Discontinuing Study Treatment: Death [22, 24]: 2 subjects
- Primary Reason for Discontinuing Study Treatment: Progressive Disease (Radiographic Progression) [22, 24]: 45 subjects
- OS: Subjects (%) with events [22, 25]: 54 (77.1%) subjects (%)
- OS: Subjects (%) without events (censored) [22, 25]: 16 (22.9%) subjects (%)
- PFS: Subjects (%) with events [22, 25]: 58 (82.9%) subjects (%)
- PFS: Subjects (%) without events (censored) [22, 25]: 12 (17.1%) subjects (%)
- Progression-Free Survival, Time to event, Median [22, 25]: 1.4 months
- Overall Survival, Time to event, Median [22, 25]: 5.3 months
- On-Study Death [22, 26]: 20 subjects
- Primary Cause of On-Study Death: Adverse Event [22, 26]: 11 subjects
- Primary Cause of On-Study Death: Disease Progression [22, 26]: 8 subjects
- Primary Reason for Discontinuing Study Treatment: Adverse Event [22, 26]: 7 subjects
- Primary Reason for Discontinuing Study Treatment: Death [22, 26]: 11 subjects
- Primary Reason for Discontinuing Study Treatment: Progressive Disease (Radiographic Progression) [22, 26]: 42 subjects
- number of subjects with the response being CR/PR ([22]; high-dose patritumab (18 mg/kg every 3 weeks) + erlotinib): 5 (7.1%) subjects (%)
- number of subjects with the response being CR/PR ([22]; low-dose patritumab (18 mg/kg loading, 9 mg/kg maintenance every 3 weeks) + erlotinib): 9 (12.9%) subjects (%)
- improvement in PFS or OS ([22]; patritumab with erlotinib compared to erlotinib plus placebo, full analysis set (unselected ITT population)): no significant improvement
- HR for PFS (pooled dose vs placebo) ([22]; HRG protein concentration cut-off 0 (median) pg/mL, n 66): 0.58
- HR for PFS (pooled dose vs placebo) ([22]; HRG protein concentration cut-off 1622.5 pg/mL, n 39): 0.31
- HR for PFS (pooled dose vs placebo) ([22]; HRG protein concentration cut-off 2000 pg/mL, n 34): 0.28
- HR for PFS (pooled dose vs placebo) ([22]; HRG protein concentration cut-off 3000 pg/mL, n 30): 0.24
- HR for PFS (pooled dose vs placebo) ([22]; HRG protein concentration cut-off 4000 pg/mL, n 27): 0.26
- HR for PFS (pooled dose vs placebo) ([22]; HRG protein concentration cut-off 5000 pg/mL, n 23): 0.40
- HR for PFS (pooled dose vs placebo) ([22]; HRG protein concentration cut-off 980 (Q3) pg/mL, n 46): 0.41
- treatment difference in PFS and OS ([22]; subjects with tumors expressing low HRG at a protein level (<980 pg/mL), pooled patritumab + erlotinib vs placebo + erlotinib): no clear treatment difference
